Data as given in US20040009973A1, “Novel potassium channels modulators” (4SC AG, priority 2002, published 2004).

Biological target: T1, BK potassium channel, cloned hSlo (α-hSlo and β-bSlo) in CHO cells (Homo sapiens, UniProt Q12791)
T1 construct: expressed in transfected cells; host or cells: CHO cells, permanently transfected
Experiment: Em-Assay: membrane potential with voltage sensitive dye DiBAC(4)3, fluorescence plate reader
Format: cell-based
Settings: compound 50 μM; NS004 25 or 50 μM; hSlo transfected CHO cells; change in DiBAC(4)3 fluorescence intensity
Excerpt: The large conductance, voltage-dependent and Ca^2+-activated potassium channel BK is a potassium selective ion channel and belongs to the subfamily of KCa channels. Four BK alpha-subunits form a functional channel that can be regulated by intracellular Ca^2+ concentration, membrane voltage, and other mechanisms like phosphorylation states or beta subunits. To test the biological activity of the compounds, we applied two different techniques, a fluorescence based assay using a voltage sensitive dye (Em-Assay) as well as exploiting electrophysiological methods.
CHO cells permanently transfected with cloned hSlo (α-hSlo and β-bSlo), yielding typical BK potassium currents (Zhou et al., Pflügers Arch., 436: 725-734 (1998), were used for the evaluation of compound activity. Activation or inhibition of BK channels in these cells leads to a change of the electrochemical gradient causing a hyperpolarized or depolarised membrane potential, respectively.
To determine changes in the membrane potential of the cells we used the voltage sensitive dye DiBAC(4)3 (Molecular Probes) in a kinetic assay system using a fluorescent plate reader (Manning and Sontheimer, J. Neurosci, Meth., 91: 73-81 (1999). The anionic bis-oxonol DiBAC(4)3 is a voltage sensitive dye which partitions from the extracellular environment into the cell where it reversibly binds to intracellular proteins, a kinetic process depending on the membrane potential of the cell. At depolarised potentials (i.e. at a reduced K^+ efflux due to blocked K^+ channels) the dye accumulates in the cell leading to an increased fluorescence intensity, due to its increased fluorescence if bound to cellular proteins. At hyperpolarized potentials (i.e. at an increased K^+ efflux due to the opening of K^+ channels), the dye partitions out of the cell causing a decreased fluorescence intensity.
hSlo transfected CHO cells where maintained in DMEM supplemented with 10% FCS, 250 μg/ml Geneticin, 100 μg/ml Hygromycin, 1×HT-Supplement, and 1×Non-essential Amino Acids and cultured in a humidified CO2 incubator. After trypsination, cells where plated with a density of 5×10^4 cells per well on a clear 96-well plate and incubated for 24 h. Cells where washed once with PBS, once with PBS containing 20 mM HEPES (adjusted to pH 7.4 with NaOH) and 2 μM DIBAC(4)3 (DPBS-DiBAC solution). 180 μl of the dPBS-DiBAC solution was then added to the cells and the plate incubated for 30-60 min at 37° C. During this time the dye could partition into the cells and reach a certain steady-state distribution, depending on the resting membrane potential. Test and reference compounds were stored as DMSO stock solutions and diluted in dPBS-DiBAC solution to the desired concentration.
Fluorescence intensity (Ex.: 485 nm/Em.: 520 nm) of each well was detected in the plate reader (Fluostar, BMG) every 60 seconds. After recording the baseline fluorescence for 7 minutes, 20 μl test—and reference compounds were added and the fluorescence intensity was detected for additional 15 minutes. Background was subtracted, data values were normalized and expressed as a change in fluorescence intensity against time. The change in fluorescence intensity caused by the test compounds was evaluated, compared to the effect of the reference compound NS004, and the ratio was determined (see Table I).

T1 sequence (Q12791 1-1178 isoform Q12791-5): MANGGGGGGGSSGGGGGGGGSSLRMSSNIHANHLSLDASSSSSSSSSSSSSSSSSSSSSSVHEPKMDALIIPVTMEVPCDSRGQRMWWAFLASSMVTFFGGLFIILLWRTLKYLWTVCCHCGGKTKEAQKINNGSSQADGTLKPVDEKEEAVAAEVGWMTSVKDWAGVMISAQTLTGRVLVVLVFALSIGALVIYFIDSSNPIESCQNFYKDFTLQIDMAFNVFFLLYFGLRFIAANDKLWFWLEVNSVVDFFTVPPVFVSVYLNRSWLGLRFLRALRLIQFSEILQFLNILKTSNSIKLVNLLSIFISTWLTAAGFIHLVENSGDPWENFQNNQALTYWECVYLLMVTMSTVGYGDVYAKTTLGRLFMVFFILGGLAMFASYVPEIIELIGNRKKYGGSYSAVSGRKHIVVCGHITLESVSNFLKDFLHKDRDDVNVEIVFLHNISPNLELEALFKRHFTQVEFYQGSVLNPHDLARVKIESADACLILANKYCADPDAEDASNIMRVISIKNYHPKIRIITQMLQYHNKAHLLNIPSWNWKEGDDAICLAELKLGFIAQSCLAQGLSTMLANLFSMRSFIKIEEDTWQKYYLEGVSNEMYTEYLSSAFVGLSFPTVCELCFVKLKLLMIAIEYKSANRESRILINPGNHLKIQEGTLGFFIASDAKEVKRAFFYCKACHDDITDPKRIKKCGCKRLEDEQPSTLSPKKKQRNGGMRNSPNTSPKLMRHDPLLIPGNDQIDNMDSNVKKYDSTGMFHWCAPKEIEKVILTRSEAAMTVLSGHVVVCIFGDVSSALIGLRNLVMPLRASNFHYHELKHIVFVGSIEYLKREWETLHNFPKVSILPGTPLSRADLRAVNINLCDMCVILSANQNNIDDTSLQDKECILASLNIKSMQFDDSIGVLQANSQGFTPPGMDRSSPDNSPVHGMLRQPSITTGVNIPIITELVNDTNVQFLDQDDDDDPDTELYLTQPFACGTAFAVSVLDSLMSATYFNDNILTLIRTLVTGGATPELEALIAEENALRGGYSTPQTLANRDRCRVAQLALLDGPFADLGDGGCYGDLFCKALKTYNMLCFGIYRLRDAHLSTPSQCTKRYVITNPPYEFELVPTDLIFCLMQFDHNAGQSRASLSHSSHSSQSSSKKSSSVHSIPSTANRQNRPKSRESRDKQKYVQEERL
T1 sequence (Q28067 2-191 partner limits assumed): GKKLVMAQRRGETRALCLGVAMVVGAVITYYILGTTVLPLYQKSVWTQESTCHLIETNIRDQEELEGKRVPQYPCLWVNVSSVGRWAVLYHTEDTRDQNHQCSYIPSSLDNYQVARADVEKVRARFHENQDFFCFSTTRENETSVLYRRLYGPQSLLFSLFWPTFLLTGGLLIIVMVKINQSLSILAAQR

Em effect: ratio of the compound effect compared to the maximal effect of NS004	Compound
++ (>1-1.5 = ++)	Fc1cc(F)cc(CNc2cccc(NCc3cc(F)cc(F)c3)c2)c1 [Compound 27, N,N′-bis-(3,5-difluorobenzyl)-benzene-1,3-diamine]
+ (0-1 = +)	FC(F)(F)c1cc(NCc2ccc(Br)cc2)cc(NCc2ccc(Br)cc2)c1 [Compound 2]
+ (0-1 = +)	CC(C)(C)c1ccc(CNc2cccc(NCc3ccc(-c4csnn4)cc3)c2)cc1 [Compound 41]
+ (0-1 = +)	CS(=O)(=O)c1ccc(CNc2cccc(NCc3ccccc3C(F)(F)F)c2)cc1 [Compound 63, N-(4-methanesulfonylbenzyl)-N′-(2-tri-fluoromethylbenzyl)-benzene-1,3-diamine]
++ (>1-1.5 = ++)	FC(F)(F)c1cc(NCc2ccc(Br)cc2)cc(NCc2cccc(Cl)c2)c1 [Compound 5]
+ (0-1 = +)	Fc1ccc(CNc2cccc(NCc3cccc(Cl)c3)c2)c(Cl)c1 [Compound 66]
+ (0-1 = +)	Fc1cccc(CNc2ccc(NCc3cccc(F)c3)cc2)c1 [Compound 100, N,N′-bis(3-fluorobenzyl)-benzene-1,4-diamine]
+ (0-1 = +)	Fc1ccc(CNc2cccc(NCc3cccc(Cl)c3)c2)c(F)c1 [Compound 55, N-(3-chlorobenzyl)-N′-(2,4-difluorobenzyl)-benzene-1,3-diamine]
+ (0-1 = +)	Fc1ccc(CNc2cccc(NCc3ccc(F)cc3)c2)cc1 [Compound 26, N,N′-bis-(4-fluorobenzyl)-benzene-1,3-diamine]
+ (0-1 = +)	FC(F)(F)c1ccc(CNc2cc(NCc3ccc(C(F)(F)F)cc3)cc(C(F)(F)F)c2)cc1 [Compound 70, 5-trifloromethyl-N,N′-bis-(4-trifluoromethylbenzyl)-benzene-1,3-diamine]
+ (0-1 = +)	Clc1cccc(CNc2ccc(NCc3ccccc3)c(Cl)c2)c1 [Compound 20, N′-Benzyl-2-chloro-N^4-(3-chlorobenzyl)-benzene-1,4-diamine]
+ (0-1 = +)	Fc1cccc(F)c1CNc1cccc(NCc2cccc(Cl)c2)c1 [Compound 57, N-(3-chlorobenzyl)-N′-(2,6-difluorobenzyl)-benzene-1,3-diamine]
+ (0-1 = +)	Fc1ccc(CNc2ccc(NCc3ccc(F)cc3F)cc2)c(F)c1 [Compound 99]
+ (0-1 = +)	COc1cccc(CNc2cc(NCc3cccc(Cl)c3)cc(C(F)(F)F)c2)c1 [Compound 82]
+ (0-1 = +)	FC(F)(F)c1ccc(CNc2ccc(NCc3ccc(C(F)(F)F)cc3)c(Cl)c2)cc1 [Compound 105]
+ (0-1 = +)	N#Cc1ccccc1-c1ccc(CNc2cc(NCc3ccc(-c4ccccc4C#N)cc3)cc(C(F)(F)F)c2)cc1 [Compound 73]
+ (0-1 = +)	Fc1cccc(CNc2cccc(NCc3ccc(-c4csnn4)cc3)c2)c1 [Compound 44, N-(3-fluoro-benzyl)-N′-(4-[1,2,3]thiadiazol-4-yl-benzyl)-benzene-1,3-diamine]
++ (>1-1.5 = ++)	CC(C)(C)c1ccc(CNc2cccc(NCc3ccc(C(C)(C)C)cc3)c2)cc1 [Compound 36, N,N′-bis-(4-tert-butylbenzyl)-benzene-1,3-diamine]
+ (0-1 = +)	CS(=O)(=O)c1ccc(CNc2cccc(NCc3cc(F)cc(F)c3)c2)cc1 [Compound 51, N-(3,5-difluorobenzyl)-N′-(4-methanlesulfonylbenzyl)-benzene-1,3-diamine]

Em effect: ratio of the compound effect compared to the maximal effect of NS004	Compound
++ (>1-1.5 = ++)	Clc1cccc(CNc2cccc(NCc3ccccc3Cl)c2)c1 [Compound 47]
+ (0-1 = +)	Cc1cc(NCc2ccc(Br)cc2)ccc1NCc1ccc(Br)cc1 [Compound 18]
++ (>1-1.5 = ++)	Fc1ccc(CNc2cccc(NCc3ccc(F)cc3F)c2)c(F)c1 [Compound 28, N,N′-bis-(2,4-difluorobenzyl)-benzene-1,3-diamine]
+ (0-1 = +)	Fc1cccc(CNc2cccc(NCc3ccccc3Cl)c2)c1 [Compound 48]
+ (0-1 = +)	FC(F)(F)c1ccccc1CNc1ccc(NCc2ccccc2C(F)(F)F)c(Cl)c1 [Compound 104, 2-chloro-N^1,N^4-bis-(2-trifluoromethylbenzyl)-benzene-1,4-diamine]
+ (0-1 = +)	Fc1cccc(F)c1CNc1cccc(NCc2c(F)cccc2F)c1 [Compound 34, N,N′-bis-(2,6-difluorobenzyl)-benzene-1,3-diamine]
+ (0-1 = +)	Fc1ccc(CNc2cc(NCc3ccc(F)cc3F)cc(C(F)(F)F)c2)c(F)c1 [Compound 69]
+ (0-1 = +)	Fc1cccc(Cl)c1CNc1cccc(NCc2c(F)cccc2Cl)c1 [Compound 29]
+ (0-1 = +)	O=[N+]([O-])c1ccc(CNc2ccc(NCc3ccc(Br)cc3)cc2Cl)cc1 [Compound 23]
+ (0-1 = +)	Clc1cc(NCc2ccc(Br)cc2)ccc1NCc1ccccc1 [Compound 19]
+ (0-1 = +)	Cc1cc(NCc2ccc(S(C)(=O)=O)cc2)ccc1NCc1ccc(S(C)(=O)=O)cc1 [Compound 86]
+ (0-1 = +)	FC(F)(F)c1cc(NCc2cccc(Cl)c2)cc(NCc2cccc(Cl)c2)c1 [Compound 3]
+ (0-1 = +)	Cc1cc(NCc2ccc(C(F)(F)F)cc2)ccc1NCc1ccc(C(F)(F)F)cc1 [Compound 101, 2-methyl-N1,N4-bis-(4-trifluoromethylbenzyl)-benzene-1,4-diamine]
+ (0-1 = +)	Clc1cc(NCc2ccc(-c3csnn3)cc2)ccc1NCc1ccc(-c2csnn2)cc1 [Compound 88]
+ (0-1 = +)	CC(C)(C)c1ccc(CNc2cccc(NCc3ccc(S(C)(=O)=O)cc3)c2)cc1 [Compound 43, N-(4-tert-butylbenzyl)-N′-(4-methanesulfonylbenzyl)-benzene-1,3-diamine]
+ (0-1 = +)	Clc1ccccc1CNc1cccc(NCc2ccccc2Cl)c1 [Compound 32]
++ (>1-1.5 = ++)	FC(F)(F)c1ccccc1CNc1cccc(NCc2ccccc2C(F)(F)F)c1 [Compound 39]
+ (0-1 = +)	FC(F)(F)c1cc(NCc2ccc3ccccc3c2)cc(NCc2ccc3ccccc3c2)c1 [Compound 4]

Compound	Em effect: ratio of the compound effect compared to the maximal effect of NS004
O=[N+]([O-])c1ccc(CNc2cccc(NCc3ccc([N+](=O)[O-])cc3)c2)cc1 [Compound 10]	+ (0-1 = +)
